Results published in patent US20190142832A1, “Marker for Cancer Prognosis and Methods Related Thereto” (National Jewish Health, priority 2007, published 2019).
Where two headings read alike, the source gives them in different places.

Experiments:
[1] = test system: adenosine A2A receptor mRNA; test: Northern blot of adenosine A2A receptor mRNA in human endothelial cells (HLMVEC, HCAEC); format: cell-based
Procedure: To assess the role of adenosine receptors in hypoxia, primary HLMVEC were exposed to air or hypoxia. For detecting mRNA, twenty-four hours post-transduction or treatment, cells were washed twice with Hank's balanced salt solution (HBSS) and harvested in GITC. RNA was purified using the CsCl method as described earlier (Riddle et al., Am J Physiol Lung Cell Mol Physiol 278, L407 (2000). 15 μg total RNA were resolved on 1% formaldehyde-agarose gels and transferred to nylon membranes. Probes used for northern blot were derived from human A2A cDNA and human A2B cDNA kindly provided by Dr. Marlene Jacobson, Merck Research Labs, West Point, Pa. The VEGF cDNA was obtained from the Harvard Proteomic Institute. The cDNA probes were labeled with [^32P]α-dCTP (ICN, Irvine, Calif.) by random priming and hybridized with the membrane for 18 hrs at 42° C. Membranes were then washed and autoradiographed. For loading controls, membranes were stripped of radioactive probe in a 2% glyceraldehyde solution at 80° C. and rehybridized with an end-labeled 28S rRNA oligonucleotide (Ambion, Austin, Tex.). The intensity of the radiolabeled bands was measured using a PhosphorImager running ImageQuant software (Molecular Dynamics, Sunnyvale, Calif.). The same Northern Blot procedure was used in subsequent examples, unless specifically noted otherwise. Protein expression was detected using standard Western Blot methods described in Ahmad, Free Radic Biol Med. 40(7):1108(2006).

HLMVEC [2] = test: [3H]-thymidine incorporation proliferation assay in HLMVEC; format: cell-based, human; settings: serum-starved, varying concentrations, 24 h
Procedure: Proliferation of HLMVEC was measured using [^3H]-thymidine incorporation. About 20,000 cells were plated in each well of a 24-well plate in endothelial cell complete medium. After 24 h, cells were washed once with HBSS and serum-starved in EBM-2 medium containing 1% FBS, hydrocortisone, ascorbic acid and GA-1000. After 24 h, cells were incubated with [^3H] thymidine (1 μCi/well) in the presence or absence of the adenosine A2A receptor agonist, CGS-21680, at varying concentrations for an additional 24 h. Subsequently, cells were washed twice with ice-cold PBS, precipitated with 0.1 N perchloric acid, and solubilized with 0.01 N NaOH containing 0.1% SDS prior to scintillation counting. Similarly, proliferation was also measured in cells transduced with Ad.A2A or Ad.LacZ at a multiplicity of infection of 10 pfu/cell.

PI 3-kinase = PI 3-kinase activity in anti-p85 immunoprecipitate and phospho-Akt Western blot, HLMVEC; format: cell-based, human; settings: 1 μM
Procedure: HLMVECs were cultured on 100 mm dishes. Cells were serum starved for 24 h before treating with 1 μM of CGS-21680 (Adenosine A2A receptor agonist) or the diluent control. Following treatment, lysates were prepared and −500 μg of protein was incubated with 20 μl of anti-p85-conjugated agarose (200 μg anti p85/200 μl agarose) for 2 h, after which the complex was precipitated. PI3-kinase activity was measured in the immunoprecipitate.

MB114 cells = test: Tube formation of MB114 cells on collagen gel; format: cell-based, murine; settings: 5 days
Procedure: MB114 cells (a microvascular endothelial cell line) were plated on collagen gel in presence of absence of the A2A receptor agonist CGS-21680 at a density of 80000 cells/well using a 24 well plate. After incubation for 5 days, photos from each well were taken randomly.

HLMVEC [3] = test: Matrigel tube formation (branching) assay in HLMVEC; format: cell-based, human
Procedure: Angiogenesis in HLMVEC was assessed using the Matrigel tube formation assay. Growth factor-reduced Matrigel matrix was coated onto 12-well plates and allowed to solidify at 37° C. for 30 min. HLMVEC's were then trypsinized and plated onto the Matrigel in the absence of growth factors or serum and incubated at 37° C. in a CO2 incubator. The A2A receptor agonist, CGS-21680, or the diluent control was included both in the Matrigel matrix and the overlying medium. Four hours after plating of cells, three randomly chosen fields from each well were photographed. Branch points were counted and plotted.

A2A receptor mRNA = A2A receptor mRNA expression in mouse derived endothelial cells SVEC and MB114; format: cell-based
Procedure: Primary human lung microvascular endothelial cells (HLMVEC), primary human coronary artery endothelial cells (HCAEC), primary pulmonary artery endothelial cells (HPAEC) and endothelial cell growth medium were obtained from Cambrex (Walkersville, Md.). Dimethyloxlylglycine (DMOG) was obtained from Frontier Scientific, Inc (Logan, Utah). HLMVEC and HCAEC were cultured in endothelial cell basal medium (EBM-2) supplemented with VEGF, human FGF, human EGF, hydrocortisone, ascorbic acid, insulin-like growth factor-1, GA-1000 (gentamycin/amphotericin-B), 5% fetal bovine serum as per the supplier's protocol. Murine brain microvascular endothelial cells (MB114) and SV-40 transformed mouse endothelial cells (SVEC) were cultured in DMEM supplemented with 10% FBS, penicillin and streptomycin. The same culture conditions were used in subsequent examples, unless specifically noted otherwise.
To assess the role of adenosine receptors in hypoxia, primary HLMVEC were exposed to air or hypoxia. […] The intensity of the radiolabeled bands was measured using a PhosphorImager running ImageQuant software (Molecular Dynamics, Sunnyvale, Calif.). […] Protein expression was detected using standard Western Blot methods described in Ahmad, Free Radic Biol Med. 40(7):1108(2006).

[4] = HLMVEC (donors) and HCAEC, Northern blot

With CC(=O)N(O)CCCCCNC(=O)CCC(=O)N(O)CCCCCNC(=O)CCC(=O)N(O)CCCCCN [DFO] the “adenosine A2A receptor steady-state mRNA levels” value [1, 4] was “increases adenosine A2A receptor steady-state mRNA levels”.

For [Cl-].[Cl-].[Co+2] [CoCl2], the “adenosine A2A receptor steady-state mRNA levels” value [1] was “increases adenosine A2A receptor steady-state mRNA levels”.

CCNC(=O)[C@H]1O[C@@H](n2cnc3c(N)nc(NCCc4ccc(CCC(=O)O)cc4)nc32)[C@H](O)[C@@H]1O [CGS-21680] was tested, and the “cellular proliferation as assessed by 3[H]thymidine incorporation” value (HLMVEC [2]) was “increased cellular proliferation in a dose-dependent manner”, the “expression of phosphorylated Akt (Western blot)” value (PI 3-kinase) was “increases expression of phosphorylated Akt” and the “PI3-kinase activity (phosphorylation of phosphoinositides, PIP3)” value (PI 3-kinase; serum starved 24 h) was “increased PI3-kinase activity”. For the same compound, the tube formation (MB114 cells) was “promotes tube formation in a dose dependent manner”, the “cell sprouting / formation of branches relative to control cells” value (HLMVEC [3]; Matrigel, 4 h) was “increased cell sprouting resulting in formation of branches” and the “increase in branching compared to the diluent control” value (HLMVEC [3]; Matrigel-matrix based assay, branch points 4 h after plating) was 37%.

COC(=O)CNC(=O)C(=O)OC [DMOG, Dimethyloxlylglycine] was tested, and the “adenosine A2A receptor steady-state mRNA levels” value [1, 4] was “increases adenosine A2A receptor steady-state mRNA levels” and the “expression of A2A receptor mRNA levels” value (A2A receptor mRNA) was “neither hypoxia nor HIF stabilization by DMOG altered the expression of A2A receptor mRNA levels”.
